These results are taken from patent US10821115B2, “Compounds that inhibit Mcl-1 protein” (priority 2017, dated 2020).

Experiment [1] has as its target recombinant human Mcl-1 (residues 171-327) / Bim interaction (Homo sapiens (Human), UniProt Q07820). The experiment can be described thus: biochemical. It counts as binding. As to conditions: read-out: Mcl-1 HTRF IC50.
The test system of experiment [2] is human multiple myeloma cell line, OPM-2. The experiment can be described thus: Cell viability assay (OPM-2 10 FBS), CellTiter-Glo. The class given is cell-based. Put shortly: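 3000 cells/well, RPMI 1640 + 10% FBS; serial compound dilutions, 16 h, 37 °C/5% CO2.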
Setting [3] is: 0.1 nM Mcl-1(171-327), 0.05 nM biotin-Bim (51-76).
[4] abbreviates: Homo sapiens, OPM-2, 16 h, read-out: OPM-2 10% FBS IC50 IP, OPM-2 cells, 10% FBS, 16 h incubation.
Setting [5] is: TR-FRET, Mcl-1(171-327) / biotin-Bim (51-76).
Where [6] appears, read: Homo sapiens, OPM-2, 16 h, read-out: OPM-2 10% FBS IC50 IP, OPM-2 cells, 10% FBS, 16 h, CellTiter-Glo.
Setting [7] is: read-out: OPM-2 10% FBS IC50 IP, OPM-2 cells, 10% FBS, 16 h, CellTiter-Glo.

Each structure is given as a SMILES string. Like-named read-outs stand apart in the source and are kept apart here.

recombinant human Mcl-1 (residues 171-327) / Bim interaction, sequence (Q07820 171-327): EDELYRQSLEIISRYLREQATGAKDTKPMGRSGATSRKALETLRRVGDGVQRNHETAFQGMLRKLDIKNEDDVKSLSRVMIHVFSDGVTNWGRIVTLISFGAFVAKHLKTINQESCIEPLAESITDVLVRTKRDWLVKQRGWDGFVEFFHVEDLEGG

In the case of `CO[C@]1(CN2CCN(C)CC2)/C=C/[C@H](C)[C@H](C)CS(=O)(=O)NC(=O)c2ccc3c(c2)N(C[C@@H]2CC[C@H]21)C[C@@]1(CCCc2cc(Cl)ccc21)CO3` [Example 160, (1S,3′R,6′R,7′R,8′E,10′S,11′S)-6-chloro-7′-methoxy-10′,11′-dimethyl-7′-((4-methyl-1-piperazinyl)methyl)-3,4-dihydro-2H,15′H-spiro[naphthalene-1,22′-[20]oxa[13]thia[1,14]diazatetracyclo [14.7.2.0~3,6~.0~19,24~]pentacosa[8,16,18,24]tetraen]-15′-one 13′,13′-dioxide], the results for the 50% inhibitory concentration (IC50) in experiment [1] (setting [3]) and in experiment [2] (setting [4]) were 0.221 nM and 148 nM, respectively.

In the case of `Cc1ccc([C@]2(O)/C=C/C[C@H](C)[C@@H](C)S(=O)(=O)NC(=O)c3ccc4c(c3)N(C[C@@H]3CC[C@H]32)C[C@@]2(CCCc3cc(Cl)ccc32)CO4)cn1` (single isomer, unassigned) [Example 100408], the IC50 stood at 1.35 nM in experiment [1] (setting [5]) and 5620 nM in experiment [2] (setting [6]).

Regarding `C[C@@H]1[C@@H](C)C/C=C/[C@@](O)(c2ccncn2)[C@@H]2CC[C@H]2CN2C[C@@]3(CCCc4cc(Cl)ccc43)COc3ccc(cc32)C(=O)NS1(=O)=O` (single isomer, unassigned) [Example 100360], the concentration for half-maximal inhibition (IC50) in experiment [1] (setting [5]) was 0.848 nM; in experiment [2] (setting [6]) it was 1230 nM.

As for `CO[C@]1(COCCN2CCOCC2)/C=C/C[C@H](C)[C@@H](C)S(=O)(=O)NC(=O)c2ccc3c(c2)N(C[C@@H]2CC[C@H]21)C[C@@]1(CCCc2cc(Cl)ccc21)CO3` [Example 100594, (1S,3′R,6′R,7′R,8′E,11′S,12′R)-6-chloro-7′-methoxy-11′,12′-dimethyl-7′-((2-(4-morpholinyl)ethoxy)methyl)-3,4-dihydro-2H,15′H-spiro[naphthalene-1,22′-[20]oxa[13]thia[1,14]diazatetracyclo [14.7.2.0~3,6~.0~19,24~]pentacosa[8,16,18,24]tetraen]-15′-one 13′,13′-dioxide], the IC50 in experiment [1] (setting [5]) is 0.143 nM; in experiment [2] (setting [6]) it was 241 nM.

As to `CO[C@@]1(CN2CCN(C(=O)N(C)C)CC2)/C=C/C[C@H](C)[C@@H](C)S(=O)(=O)NC(=O)c2ccc3c(c2)N(C[C@@H]2CC[C@H]21)C[C@@]1(CCCc2cc(Cl)ccc21)CO3` [Example 259, 4-(((1S,3′R,6′R,7′S,8′E,11′S, 12′R)-6-chloro-7′-methoxy-11′,12′-dimethyl-13′,13′-dioxido-15′-oxo-3,4-dihydro-2H-spiro[naphthalene-1,22′-[20]oxa[13]thia[1,14]diazatetracyclo [14.7.2.0~3,6~.0~19,24~]pentacosa[8,16,18,24]tetraen]-7′-yl)methyl)-N,N-dimethyl-1-piperazinecarboxamide], the results for the IC50 in experiment [1] (setting [3]) and in experiment [2] (setting [4]) were 0.23 nM and 254 nM, respectively.

`COCCN1CCN(C[C@]2(OC)/C=C/C[C@H](C)[C@@H](C)S(=O)(=O)NC(=O)c3ccc4c(c3)N(C[C@@H]3CC[C@H]32)C[C@@]2(CCCc3cc(Cl)ccc32)CO4)CC1=O` [Example 55, (1S,3′R,6′R,7′S,8′E,11′S,12′R)-6-chloro-7′-methoxy-7′-((4-(2-methoxyethyl)-3-oxo-1-piperazinyl)methyl)-11′,12′-dimethyl-3,4-dihydro-2H,15′H-spiro[naphthalene-1,22′-[20]oxa[13]thia[1,14]diazatetracyclo [14.7.2.0~3,6~.0~19,24~]pentacosa[8,16,18,24]tetraen]-15′-one 13′,13′-dioxide]: the values for the half-maximal inhibitory concentration (IC50) in experiment [1] (setting [3]) and in experiment [2] (setting [4]) were 0.162 nM and 80 nM, respectively.

Take `COC[C@]1(OC)/C=C/C[C@H](C)[C@@H](C)S(=O)(=O)NC(=O)c2ccc3c(c2)N(C[C@@H]2CC[C@H]21)C[C@@]1(CCCc2cc(Cl)ccc21)CO3` [Example 100401, (1S,3′R,6′R,7′S,8′E,11′S,12′R)-6-chloro-7′-methoxy-7′-(methoxymethyl)-11′,12′-dimethyl-3,4-dihydro-2H,15′H-spiro[naphthalene-1,22′-[20]oxa[13]thia[1,14]diazatetracyclo [14.7.2.0~3,6~.0~19,24~]pentacosa[8,16,18,24]tetraen]-15′-one 13′,13′-dioxide]: the 50% inhibitory concentration (IC50) in experiment [1] (setting [5]) turned out to be 1.8 nM; in experiment [2] (setting [6]) it was 8390 nM.

As for `CO[C@@]1(CN2CCN3CCC(F)(F)CC3C2)/C=C/C[C@H](C)[C@@H](C)S(=O)(=O)NC(=O)c2ccc3c(c2)N(C[C@@H]2CC[C@H]21)C[C@@]1(CCCc2cc(Cl)ccc21)CO3` (mixture of isomers) [Example 273], the concentration for half-maximal inhibition (IC50) in experiment [1] (setting [3]) turned out to be 0.494 nM; in experiment [2] (read-out: OPM-2 10% FBS IC50 IP, OPM-2 cells, 10% FBS, 16 h incubation), 501 nM.

`C[C@@H]1[C@@H](C)C/C=C/[C@@](O)(CCCO)[C@@H]2CC[C@H]2CN2C[C@@]3(CCCc4cc(Cl)ccc43)COc3ccc(cc32)C(=O)NS1(=O)=O` [Example 100148, (1S,3′R,6′R,7′S,8′E,11′S,12′R)-6-chloro-7′-hydroxy-7′-(3-hydroxypropyl)-11′,12′-dimethyl-3,4-dihydro-2H,15′H-spiro[naphthalene-1,22′-[20]oxa[13]thia[1,14]diazatetracyclo [14.7.2.0~3,6~.0~19,24~]pentacosa[8,16,18,24]tetraen]-15′-one 13′,13′-dioxide]: the IC50 is 0.113 nM in experiment [1] (setting [5]) and 239 nM in experiment [2] (setting [7]).

With `CO[C@@]1(c2ccc(F)nc2)/C=C/C[C@H](C)[C@@H](C)S(=O)(=O)NC(=O)c2ccc3c(c2)N(C[C@@H]2CC[C@H]21)C[C@@]1(CCCc2cc(Cl)ccc21)CO3` (single isomer, unassigned) [Example 100535], the IC50 in experiment [1] (setting [5]) was determined as 0.57 nM; in experiment [2] (setting [7]), 964 nM.

Turning to `C[C@@H]1[C@@H](C)C/C=C/[C@](O)(c2cccnc2)[C@@H]2CC[C@H]2CN2C[C@@]3(CCCc4cc(Cl)ccc43)COc3ccc(cc32)C(=O)NS1(=O)=O` (single isomer, unassigned) [Example 100183], the half-maximal inhibitory concentration (IC50) is 1.34 nM in experiment [1] (setting [5]) and 2240 nM in experiment [2] (setting [6]).

As for `CO[C@@]1(CC(=O)N2CCN(C)CC2)/C=C/C[C@H](C)[C@@H](C)S(=O)(=O)NC(=O)c2ccc3c(c2)N(C[C@@H]2CC[C@H]21)C[C@@]1(CCCc2cc(Cl)ccc21)CO3` [Example 100376, (1S,3′R,6′R,7′S,8′E,11′S,12′R)-6-chloro-7′-methoxy-11′,12′-dimethyl-7′-(2-(4-methyl-1-piperazinyl)-2-oxoethyl)-3,4-dihydro-2H,15′H-spiro[naphthalene-1,22′-[20]oxa[13]thia[1,14]diazatetracyclo [14.7.2.0~3,6~.0~19,24~]pentacosa[8,16,18,24]tetraen]-15′-one 13′,13′-dioxide], the half-maximal inhibitory concentration (IC50) in experiment [1] (setting [5]) amounted to 0.15 nM; in experiment [2] (setting [6]), 362 nM.

Turning to `COC1=NO[C@@]2(CCC[C@H](C)[C@@H](C)S(=O)(=O)NC(=O)c3ccc4c(c3)N(C[C@@H]3CC[C@H]32)C[C@@]2(CCCc3cc(Cl)ccc32)CO4)C1` [Example 100134, (1S,3′R,6′R,7′S,11′S,12′R)-6-chloro-3″- methoxy-11′,12′-dimethyl-3,4-dihydro-2H,4″H,15′H-dispiro[naphthalene-1,22′-[20]oxa[13]thia[1,14]diazatetracyclo [14.7.2.0~3,6~.0~19,24~]pentacosa[16,18,24]triene-7′,5″-[1,2]oxazol]-15′-one 13′,13′-dioxide], the IC50 is 0.845 nM in experiment [1] (setting [5]) and 3510 nM in experiment [2] (setting [6]).
